Measurements from US20230346654A1, “Anhydrous Urea Emulsions” (BAEK CLINICAL INC., priority 2020, published 2023).
Like-named read-outs stand apart in the source and are kept apart here. One block for each compound: values may come before it.

Assays:
[1] = Assessment of solvents: ability to solubilize urea; settings: neat solvent
[2] = stated as well-known; cited from earlier work
[3] = Assessment of solvents: gentleness or irritation on skin; settings: applied to skin; 1,3-propanediol even applied neat, or at 100% concentration
Excerpt: (§1) AA refers to L-ascorbic acid. U refers to urea. % values are wt %.

[4] = Solubility of optional additional components in non-aqueous solvents; type: physicochemical
Excerpt: as §1

[5] = in most solvents; cited from earlier work
[6] = in vivo; cited from earlier work
[7] = concentrations of 0.2%; cited from earlier work

- ability to solubilize urea [1]: moderate
Compound: OCCCCCO [1,5-pentanediol]

- solubility ([4]; in 1,3 propanediol, 1,2 propanediol and 1,3 butanediol at 0.5-1%): readily soluble
Compound: COc1cc(CC(C(C)=O)C(C)=O)ccc1O [Acetyl zingerone]

- concentration that can be solubilized ([4]; in 1,3 propanediol): up to 10%
- change of solubility in 1,3 propanediol ([4]; in the presence of hydroxyethyl urea): slightly increased
- concentration that can be solubilized ([4]; with 10% AA, 5% U in a 1,3 propanediol base): 7.5%
Compound: O=C(O)CCCCCCCC(=O)O [AzA, Azelaic acid, reference compound]
- solubility [5]: very poorly soluble

- ability to solubilize urea [1]: moderate
Compound: OCC(O)CO [Glycerin, glycerol (1,2,3-propanetriol)]

- ability to solubilize urea [1]: moderate
Compound: OCC(O)COCC(O)CO (stereo not drawn) [diglycerin]

- solubility ([4]; in 1,3-propanediol): shows solubility
Compound: CC1(C)[C@@H](O[C@H]2O[C@H](C(=O)O)[C@@H](O)[C@H](O)[C@H]2O[C@@H]2O[C@H](C(=O)O)[C@@H](O)[C@H](O)[C@H]2O)CC[C@]2(C)[C@H]3C(=O)C=C4[C@@H]5C[C@@](C)(C(=O)O)CC[C@]5(C)CC[C@@]4(C)[C@]3(C)CC[C@@H]12 [glycyrrhizic acid, Glycyrrhizic acid]

- solubility ([4]; at a concentration of 0.2% in 1,3 propanediol, 1,2 propanediol and 1,3 butanediol): soluble
Compound: Madecassoside
- ability to reduce erythema (skin redness) [7]: desirable ability to reduce erythema

Second part, the compound before the results:

Compound: CCCCC(O)CO (stereo not drawn) [1,2-hexanediol]
- ability to solubilize urea [1]: moderate

Compound: CC(O)CO (stereo not drawn) [1,2-propanediol]
- skin irritation and sensitivity [2]: inducing skin irritation and sensitivity
- ability to solubilize urea [1]: moderate

Compound: CC(O)CCO (stereo not drawn) [1,3-butanediol]
- gentleness on skin [3]: relatively gentle on skin

Compound: OCCCO [1,3-propanediol]
- gentleness on skin [3]: gentleness on skin

Compound: CO[C@H]1CO[C@H]2[C@@H]1OC[C@H]2OC [Dimethyl isosorbide]
- ability to solubilize urea [1]: very limited

Compound: CC(C)(CO)[C@@H](O)C(=O)NCCCO [Panthenol]
- concentration at which inhibition of transepidermal water loss is apparent [6]: ≥ 1%
